Here are results for 1 molecule from patent publication US8580789B2, “Treating glaucoma” (The Cleveland Clinic Foundation, priority 2007, dated 2013).

Assay [1] deals with optic nerve/lamina cribrosa complex. Nature of the assay: Surface wave velocity (stiffness) across the optic nerve/lamina cribrosa complex of whole globes, Sonic Eye elastometer. On the set-up: species or system porcine. The settings on record: for Mean ON/LCC Stiffness, After Glutaraldehyde Crosslinking: Example 2, GTA annular sponge on PS only ~30 min. Here is the method:
(§1) Surface wave velocity (SWV) is a measure of tissue stiffness, and is performed by detecting the velocity of an ultrasonic wave between 2 points (Sonic Eye, Priavision, Menlo Park, Calif.) (Dupps W J, et al., J Refract Surg; 23: 66-75 (2007)). 19 porcine eyes were divided into 2 groups. In group 1 (6 eyes), the SWV across the exposed optic nerve/lamina cribrosa complex (ON/LCC) was initially measured at the eyes' physiologic IOP and at 100 mmHg. The porcine globes were cannulated with IV tubing to facilitate the change in IOP. In group 2 (13 eyes), the pre-treatment SWV was measured across the same region and atop the peri-papillary sclera, after which both regions were treated with riboflavin 1%, Q 5 min×6, and UVA irradiation (˜365 nm at 3 mW/cm^2) for 30 min per eye. The SWV was then re-measured in each eye at the pre-treatment IOP and at 100 mmHg.
(§2) An annular sponge soaked in GTA was exposed to the peripapillary sclera for ˜30 minutes, and not the ON/LCC. Measurements were repeated as above, but also along each quadrant of peripapillary sclera to ensure uniformity and symmetry of crosslinking around the ON/LCC. The results are summarized as follows:
(§3) Eighteen porcine globes were divided evenly into 3 groups. The optic nerves were transected to expose the ON/LC, and each globe was infused through an in-line pressure transducer for direct IOP control. Surface wave velocity, a non-destructive measure of tissue stiffness, was measured across the ON/LC and PS before and after collagen crosslinking at IOP of 10 and 30 mmHg (groups 1 and 2) and at each globe's preinflation IOP and 80 mmHg (group 3). In group 3, papillary strain was measured by analyzing the displacement of fiducial marks immediately adjacent to the ON/LC using digital photography.
(§4) Surface wave velocity (SWV) is a measure of tissue stiffness that has been used in dermatologic applications to measure age-related changes (Potts R O, et al., J Invest Dermatol.; 82(1):97-100 (1984); Potts R O, et al., J Biomech.; 16(6):365-372 (1983); Davis B R, et al., Exp Gerontol; 24(3):201-210 (1989)), softening effects of tissue hydration and skin creams (Vexler A, et al., J Invest Dermatol; 113(5):732-739 (1999)), and sclerosing effects of radiation on breast skin (Gorodetsky R, et al., Int J Radiat Oncol Biol Phys.; 45(4):893-900 (1999)). When acoustic waves in the 0.5 to 30 kHz frequency range are used, propagation speed in skin is related to the density and stiffness of the tissue (Pereira J M, et al., J Biomech.; 23(8):745-751 (1990)). A prototype handheld ocular surface elastometer (Sonic Eye, Priavision, Menlo Park, Calif.) with an operating frequency within this range (4 kHz) and a fixed 4.5 mm wave propagation distance has been described in detail elsewhere (Dupps W J Jr, et al., J Refract Surg.; 23(1):66-75 (2007)). The Sonic Eye was used in this study as a non-destructive means of measuring local in situ tissue stiffness across and around the optic nerve head.
Eighteen porcine eyes were obtained from a local abattoir (Heffelfingers Meats, Inc., Jeromesville, Ohio) and were used within 24 hours postmortem. The optic nerves were dissected under microscopic visualization to expose the ON/LC (FIG. 1). […]
(§5) Three experimental groups of 6 eyes each were defined. In group 1, SWV across the optic nerve/lamina cribrosa complex and peripapillary scleral regions of interest were measured at 10 and 30 mmHg to represent a physiological range of pressures. […]

The subject of assay [2] is human sclera. The settings on record: scleral strips; 1 hour glutaraldehyde, 5 days glyceraldehydes, 30 minutes UVA for riboflavin/UVA; cited from earlier work.
Assay [3] deals with peripapillary sclera. Nature of the assay: Surface wave velocity (stiffness) of the peripapillary sclera of whole globes, Sonic Eye elastometer. On the set-up: species or system porcine. The settings on record: for Mean PPS Stiffness, After Glutaraldehyde Crosslinking: Example 2, GTA annular sponge on PS only ~30 min; for Stiffness of Peripapillary Sclera, Post-crosslinking Mean ± SD: 4% GTA on PS only 30 min. Here is the method: as §1, §2, §3, §4
Eighteen porcine eyes were obtained from a local abattoir (Heffelfingers Meats, Inc., Jeromesville, Ohio) and were used within 24 hours postmortem. The optic nerves were dissected under microscopic visualization to expose the ON/LC (FIG. 1). […] Replicate SWV measurements were obtained at a rate of 1 per second with a triggering foot pedal to produce at least 5 measurements that were subsequently averaged for each region of interest. A PC software interface converted the time-of-flight data to velocity in meters per second (m/s), and the velocity data were exported to Excel (v. 11, SP2; Microsoft Corp, Redmond, Wash.) and Minitab (v. 14.20; Minitab Inc, State College, Pa.) for statistical analysis.
as §5

In the case of `O=CCCCC=O` [GTA, glutaraldehyde], the “Mean ON/LCC Stiffness, After Glutaraldehyde Crosslinking” value is recorded as 29.5 m/s in assay [1] (mean IOP 3 mmHg) and 29.3 m/s in assay [1] (mean IOP 80 mmHg). Further, the “Stiffness of Optic Nerve/Lamina Cribrosa Complex, Post-crosslinking Mean ± SD” value in assay [1] (Example 3 Group 3, 4% GTA on PS only 30 min, Low IOP = pre-inflation 2-4 mmHg) worked out at 29.5±2.9 m/s. Moreover, the “Rise in human scleral stress (rigidity)” value in assay [2] is recorded as 122%. In addition, the figures for the “Mean PPS Stiffness, After Glutaraldehyde Crosslinking” value in assay [3] (mean IOP 3 mmHg) and in assay [3] (mean IOP 80 mmHg) were 83.6 m/s and 97.9 m/s, respectively. The “Stiffness of Peripapillary Sclera, Post-crosslinking Mean ± SD” value was 197.0±35.6 m/s in assay [3] (Example 3 Group 2, High IOP 30 mmHg); 148.4±43.0 m/s in assay [3] (Example 3 Group 2, Low IOP 10 mmHg); 190.2±45.8 m/s in assay [3] (Example 3 Group 3, High IOP 80 mmHg); 149.9±35.7 m/s in assay [3] (Example 3 Group 3, Low IOP = pre-inflation 2-4 mmHg).
